The record followed here is patent US10765696B2, “Compositions of and methods of treatment with zwitterionic polysaccharide” (City of Hope, priority 2015, dated 2020).

Bounds are passed on as bounds.

In one experiment the test system is monocytes. The experiment is described as follows: Monocyte degranulation (CD107a/b), blood and spleen of treated HSV infected mice. Particulars: monocytes from blood and spleen, day 6 post-infection.
For a further experiment, the system named is T cells. The experiment is described as follows: Flow cytometry of T cells (phenotype, tetramer, intracellular cytokines) from treated HSV infected mice. For orientation: In flow cytometry, cells or beads pass a laser one at a time.
Experiment [1] has as its system DCs, PMNs, CD45+ intra-epithelial lymphocytes. The experiment is described as follows: Binding of fluorescent PSA to immune cells after oral gavage. The class given is in vivo, mouse. As to conditions: ileum of 129 WT or Rag mice.
For the next experiment, the system named is HSV-1 strain 17+. The experiment in a line: HSV encephalitis (HSE) survival model, corneal scarification. It is filed as in vivo, mouse. Here is the method: 129S6 Wild Type (WT), 129 FoxP3-GFP and IL-10 knock-out (KO) mice were bred. Male and female mice aged 6-10 weeks were infected with HSV-1 strain 17+ (HSV).
Prophylactic administration: six doses of 50 μg of PSA in sterile PBS was given as indicated-orally (PO), or intra-peritoneally (IP) over 3 weeks prior to HSV infection. Additionally, six doses of PSA were given IP on 9 days before HSV infection, 6 days before HSV infection, 3 days before HSV infection, day 0 of HSV infection (i.e., on the day of infection), 2 days post-infection, and 4 days post-infection. Mice received either PBS or the anti-viral drug acyclovir (ACV) from day 4 to 10 post-infection at 50 mg/kg. Therapeutic administration: PSA was administered on days 1, 3 and 6 post HSV infection by PO, IP or intravenous injection (IV) along with ACV beginning day 4-10 post-infection (pi).
The post-infection therapeutic regimen included PSA administered day 1, day 3, day 6 post-infection, with ACV administered from day 4 post-infection. At day 4 post-HSV infection, 1.25 mg of ACV was given per mouse by IP injections daily for 7 days. […] 129 WT or Rag mice were given PSA as indicated in FIG. 3A prior to the infection. ACV was given starting at day 4 post-infection (FIG. 3B).

Another experiment has as its system T and B cells. The experiment in a line: Immune cell analysis in uninfected WT mice during/after oral PSA treatment. It is filed as in vivo, mouse. An excerpt: PSA increases IL-10 secreting T and B cells, as depicted in FIGS. 14A-14B.
Line plots showing CD39, CD73 and ICOS surface expression on CD4 and CD8 T cells isolated from mesenteric LN (MLN) of uninfected WT mice at indicated times during oral PSA treatment are depicted in FIGS. 16A-16B. FIG. 16A depicts CD4 T cells isolated from MLN of uninfected WT mice at indicated times during oral PSA treatment. FIG. 16B depicts CD8 T cells isolated from MLN of uninfected WT mice at indicated times during oral PSA treatment.

A further experiment concerns HSV 17+ strain. The experiment in a line: Flow cytometry of infiltrating leukocytes in brainstem (CNS inflammation) at day 6 pi.
The subject of a further experiment is B cells. The experiment in a line: Splenic B cell phenotype in treated HSV infected mice. The class given is in vivo, mouse. As to conditions: six oral doses of PSA, ACV from day 4 pi, spleen day 6 pi.

In the case of “Bacteroides fragilis (B. fragilis) capsular polysaccharide A (PSA)”, in the experiment with monocytes, the “degranulation of monocytes following stimulation with HSV antigen” value is reported as “limited degranulation” and the “spontaneous degranulation of monocytes” value is on record as “reduced spontaneous degranulation”. In addition, the “CD4+ ICOS+ T cells in the spleen” value in the experiment on T cells (129 WT mice, spleen) turned out to be 56%. Moreover, in the experiment on T cells (PMA+ ionomycin stimulation), the “CD4+ ICOS+ T cells that produced IL-10” value is on record as “Approximately 10%”. Moreover, the “phenotype of FoxP3 Tregs (CD25, CD103)” value in the experiment on T cells (cervical lymph nodes, HSV infected WT mice, ACV from d4, day 6 pi) is recorded as “functional phenotype”. For the same compound, the “CD62Llow CD4 T cells that were ICOS+” value with T cells (oral PSA, blood and spleen, day 6 post-infection) is recorded as 56%. In the experiment with T cells (six oral doses of PSA, ACV from day 4, spleen day 6 post-infection), the “virus specific spleen CD8 T cells that were CD103+” value was > 70%. Moreover, in the experiment on T cells (six oral doses of PSA, ACV from day 4, spleen day 6 post-infection, PMA+ionomycin), the “CD4s that secrete IL-10 in response to stimulation” value was “about 11%”. The “frequency of Tregs” value with T cells (spleen or BS) is given as “No change”. The “IL-10 secretion from PSA stimulated CD45+ IEL” value in experiment [1] is recorded as “induce IL-10 secretion by CD45+ IEL T cells in wild type but not Rag mice”. Further, the “survival of PSA treated B cell knockout mice or 129 Rag recipients of CD4 T cells, CD8 T cells or B cells” value in the experiment with HSV-1 strain 17+ (HSV 17+ strain, ACV from day 4 pi) is “B cells and T cells are essential for PSA mediated protection”. Also, the “protection against HSV infection” value in the experiment on HSV-1 strain 17+ (PSA IP therapeutically day 1, day 3, day 6 with ACV from day 4 post-infection) is recorded as “also did not protect against HSV infection”. In the experiment with HSV-1 strain 17+ (mice pretreated with purified PSA prior to the HSV-1 infection, control PBS), the “development of fatal HSE” value was “prevented the development of fatal HSE”. Besides, in the experiment with HSV-1 strain 17+ (six doses of 50 μg PSA prior to and during infection (or day -8 to +4 regimen, or day 1, 3, 6 pi), ACV 1.25 mg IP daily for 7 days from day 4 pi), the “protection against HSV infection” value is on record as “did not protect against HSV infection”. In addition, the “IL-10 secreting T and B cells” value in the experiment on T and B cells (MLN and spleen of uninfected WT mice after 6 doses of oral PSA) is “increases”. In addition, the “accumulation of regulatory T cells (CD39, CD73, ICOS expression)” value in the experiment on T and B cells (mesenteric lymph nodes of uninfected WT mice during oral PSA treatment) is reported as “increases accumulation”. Also, the “CNS inflammation (% CD45high infiltrates, Ly6Chigh CD11b+ inflammatory monocytes in brainstem)” value with HSV 17+ strain (129 Rag mice, ACV from day 4 pi, brainstem day 6 pi) was “does not reduce CNS inflammation”. Also, the “CNS inflammation (infiltrating leukocytes in brainstem)” value with HSV 17+ strain (129 WT mice, ACV from day 4 pi, brainstem day 6 pi) is “reducing CNS inflammation”. Further, in the experiment on HSV 17+ strain (129 WT mice, brainstem), the “CD8+ in brainstem that were CD103+” value is given as “majority” and the “CD8+ virus specific based on tetramer staining” value was “Greater than 70%”. The “splenic B cell phenotype (CD138)” value in the experiment on B cells is recorded as “the majority of B cells express a highly activated secretory plasmablast phenotype”.

For the compound `Nc1nc2c(ncn2COCCO)c(=O)[nH]1` [ACV, acyclovir, reference compound], in the experiment on HSV-1 strain 17+ (129 WT mice, ACV given at day 4 post infection), the “prevention of lethal HSV encephalitis (HSE)” value is listed as “Cannot Prevent Lethal HSV Encephalitis (HSE)”.
